Experimental data from article PMC6445123 (Scientific Reports, 2019).
Numbering of substitutions follows the chain as printed. Several values for one entry are separate records, joined by “and”; a condition that tells them apart may be missing. Equal values may be shown once.

Experiments:
[1] = molecular target: T1, Casp6-K284A (Homo sapiens, UniProt P55212, K284A); test: C13 dose-response, fluorescence-based activity assay on Casp6-K284A; type: biochemical; conditions: Casp6-K284A; read-out: IC50 of C13 for Casp6-K284A (Fig. 4f)
T1 construct: it only partially self-cleaved at the TEVD193 site generating ΔCasp6, LS-L and SS fragments; His (C); made in house; host or cells: E. coli BL21(DE3)pLysS
T1 sequence (P55212 24-193): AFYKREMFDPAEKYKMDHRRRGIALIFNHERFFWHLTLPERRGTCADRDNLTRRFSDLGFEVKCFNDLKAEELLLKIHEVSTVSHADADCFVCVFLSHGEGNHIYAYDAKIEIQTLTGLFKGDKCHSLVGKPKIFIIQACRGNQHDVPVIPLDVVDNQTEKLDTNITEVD
T1 sequence (P55212 194-293 K284A): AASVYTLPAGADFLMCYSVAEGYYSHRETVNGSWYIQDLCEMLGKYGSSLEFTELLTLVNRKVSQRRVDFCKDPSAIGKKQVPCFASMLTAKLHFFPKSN
Text: (§1) Figure 4 Compounds S10G and C13 inhibit Casp6 through a noncompetitive mode of inhibition. (a) Michaelis-Menten kinetic plots of Casp6 enzymatic activity in presence of 1% DMSO or increasing doses S10G (top) and C13 (bottom). Data points represent mean ± SD of three independent experiments. (b) Lineweaver-Burk plots of Casp6 inhibition with S10G (top) and C13 (bottom). Red circle indicates the point where lines converge. (c) The relationship between the slopes of lines in Lineweaver-Burk plot analyses in panel (b) and inhibitor concentration. (d) Plots of IC50 values for S10G (top) and C13 (bottom) with varying concentrations of Ac-VEID-AFC substrate. Data points represent mean ± SD from three independent experiments for each substrate concentration. (e) Binding model of C13 into CASP6 putative allosteric site, derived from molecular docking. Left: C13 (green sticks) occupies the putative allosteric site (white surface and lines; Ala-mutated residues L200 and K284 shown as purple sticks). […] Data points on the graph represent the mean ± SD, and calculated Ki values represent mean ± standard error (SE) from three independent experiments. […]

[2] = system: Casp6-K284A; test: as above; type: biochemical, human
Text: as §1

[3] = molecular target: T2, Casp6-K284A-LS-SS (Homo sapiens, UniProt P55212, K284A); test: C13 dose-response and global-fit kinetics on Casp6-K284A-LS-SS; type: biochemical
T2 construct: obtained by co-expression and purification of LS and SS subunits of WT, L200A or K284A Casp6 from E. coli; His (C); made in house; host or cells: E. coli BL21(DE3)pLysS
T2 sequence (P55212 24-179 limits assumed): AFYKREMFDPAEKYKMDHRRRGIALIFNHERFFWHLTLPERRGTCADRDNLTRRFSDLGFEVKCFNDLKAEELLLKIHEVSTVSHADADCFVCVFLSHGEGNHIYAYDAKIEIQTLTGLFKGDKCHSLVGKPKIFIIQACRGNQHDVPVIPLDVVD
T2 sequence (P55212 194-293 K284A limits assumed): T1 sequence (P55212 194-293 K284A)
Text: Figure 4 Compounds S10G and C13 inhibit Casp6 through a noncompetitive mode of inhibition. (a) Michaelis-Menten kinetic plots of Casp6 enzymatic activity in presence of 1% DMSO or increasing doses S10G (top) and C13 (bottom). Data points represent mean ± SD of three independent experiments. (b) Lineweaver-Burk plots of Casp6 inhibition with S10G (top) and C13 (bottom). Red circle indicates the point where lines converge. (c) The relationship between the slopes of lines in Lineweaver-Burk plot analyses in panel (b) and inhibitor concentration. (d) Plots of IC50 values for S10G (top) and C13 (bottom) with varying concentrations of Ac-VEID-AFC substrate. Data points represent mean ± SD from three independent experiments for each substrate concentration. (e) Binding model of C13 into CASP6 putative allosteric site, derived from molecular docking. Left: C13 (green sticks) occupies the putative allosteric site (white surface and lines; Ala-mutated residues L200 and K284 shown as purple sticks). Right: predicted interactions with Casp6 allosteric pocket residues (pink balls polar, circled blue or red for basic and acidic, respectively. Green balls = hydrophobic. Dotted-arrow: blue and green for backbone and sidechain hydrogen-bond interactions, respectively. Blue shade = solvent exposed area). Dose-response curves of C13 for Casp6-WT and Casp6-K284A (f), and copurified LS and SS of Casp6-WT-LS-SS, Casp6-L200A-LS-SS, and Casp6-K284A-LS-SS (g). Data represent mean ± SD from at least three independent experiments. (h) Global fit of kinetics data to a noncompetitive (mixed) inhibition model for Casp6-WT-LS-SS (left panel, R^2 = 0.9635), Casp6-L200A-LS-SS (middle panel, R^2 = 0.9699), and Casp6-K284A-LS-SS (right panel, R^2 = 0.9794) in the presence of 0–50 µM C13. Data points on the graph represent the mean ± SD, and calculated Ki values represent mean ± standard error (SE) from three independent experiments.
To determine the importance of C13 interactions with L200 and K284 for C13 binding in the Casp6 allosteric pocket, we have generated Casp6-L200A and Casp6-K284A mutants and investigated inhibition with C13. In contrast to Casp6-WT, purified Casp6-L200A and Casp6-K284A underwent poor self-processing when overexpressed in E. coli from a construct encoding a full-length Casp6 (Fig. S5). Casp6-L200A partially self-processed at the TETD23 site generating full-length Casp6 and Casp6 without a prodomain (ΔCasp6). Casp6-K284A underwent complete processing at the TETD23 site but, in contrast to Casp6-WT, it only partially self-cleaved at the TEVD193 site generating ΔCasp6, LS-L and SS fragments (Fig. S5). […] Fully processed forms of Casp6-WT-LS-SS, Casp6-L200A-LS-SS, and Casp6-K284A-LS-SS were obtained by co-expression and purification of LS and SS subunits of WT, L200A or K284A Casp6 from E. coli (Fig. S5). […]
(§2) Compounds, S10G (2.5 µM, 4.2 µM, 10 µM), and C13 (5 µM, 14 µM, 50 µM), were added to 20 nM active site titrated Casp6 and enzyme activity was measured with eight different Ac-VEID-AFC substrate concentrations (5.0 μM–200 μM) using fluorescence-based Casp6 activity assay as above. The apparent KM and Vmax values were determined through nonlinear regression analysis of Michaelis-Menten plots (v vs. [S]) using GraphPad Prism 5. The inhibition mode was determined from the pattern of converging Lineweaver-Burk plots (1/v vs. 1/[S])[54]. […]

[4] = molecular target: T3, Casp6-WT-LS-SS (Homo sapiens, UniProt P55212); test: C13 dose-response and global-fit kinetics on Casp6-WT-LS-SS; type: biochemical
T3 construct: obtained by co-expression and purification of LS and SS subunits of WT, L200A or K284A Casp6 from E. coli; His (C); made in house; host or cells: E. coli BL21(DE3)pLysS
T3 sequence (P55212 24-179 limits assumed): T2 sequence (P55212 24-179 limits assumed)
T3 sequence (P55212 194-293 limits assumed): T1 sequence (P55212 194-293 K284A) with A91K
Text: as §1, with “sticks). Right: predicted interactions with Casp6 allosteric pocket residues (pink balls polar, circled blue or red for basic and acidic, respectively. Green balls = hydrophobic. Dotted-arrow: blue and green for backbone and sidechain hydrogen-bond interactions, respectively. Blue shade = solvent exposed area).” for “sticks).”
as §2

[5] = Ac-VEID-AFC hydrolysis, increasing substrate and C13 concentrations
[6] = global fit to noncompetitive (mixed) model, 0–50 µM C13, mean ± SE

## COC(=O)c1cc(CNC(=O)C2Cc3ccccc3O2)cc(NC(=O)c2ccco2)c1 (stereo not shown) [Compound C13]
[1]
  IC50: 46.7 ± 18.5 µM
[2]
  fold higher IC50 for Casp6-K284A than Casp6-WT: ~ 2.7 fold
[3]
  fold higher IC50 for Casp6-K284A-LS-SS compared to Casp6-WT-LS-SS: 1.5 fold
  fold higher Ki for Casp6-K284A-LS-SS compared to Casp6-WT-LS-SS: 1.6 fold
[3]; [5]
  inhibition model (best global fit), Casp6-K284A-LS-SS: noncompetitive (mixed) model inhibition
[3]; copurified LS and SS, read-out: IC50 of C13 for Casp6-K284A-LS-SS (Fig. 4g)
  IC50: 47.8 ± 6 µM
[3]; [6]
  Ki: 11.8 µM
[4]; [5]
  inhibition model (best global fit), Casp6-WT-LS-SS: noncompetitive (mixed) model inhibition
[4]; copurified LS and SS, read-out: IC50 of C13 for Casp6-WT-LS-SS (Fig. 4g)
  IC50: 31.8 ± 6.7 µM
[4]; [6]
  Ki: 7.45 µM and 7.5 µM
